# Test system: plaque biofilm grown from pooled human saliva (3-day biofilm)
# Experiment: in vitro plaque glycolysis model (iPGRM): acid production and acid inhibition
# Assay type: cell-based
# Procedure: Acid production and acid inhibition were determined with the in vitro plaque glycolysis model (iPGRM). The purpose of this technique is to provide a simple and quick method for determining if compounds have an influence on the metabolic pathways that plaque microorganisms utilize to produce toxins that adversely affect gingival health.
# The in vitro plaque glycolysis model (iPGRM) is a technique in which plaque is grown from human saliva and treated with various agents to determine anti-glycolytic activity of treatments. When bacteria convert sugar into energy with the help of enzymes, acids are formed. These acids demineralize and damage the dental enamel. […]
# A plaque biofilm was grown on glass rods from fresh pooled human saliva and Trypticase Soy Broth (TSB) at 37° C. over […] by dipping glass rods into and out of media in a reciprocating motion. […] The pH of the media solutions was then measured to determine the amount of glycolysis inhibition relative to a negative control.
# On Day 1, new glass rods (5 mm×90 mm) were polished approximately 25 mm from the untapered end on a lathe with silicon carbide paper of 240, 320, 400, and 600 grit used sequentially. […] After polishing, rods were stored until ready to run test. […]
structure (smiles),measurement,setting,value
"[H]/N=C(\N/C(=N/[H])NCCCCCCNC(=N)NC(=N)Nc1ccc(Cl)cc1)Nc1ccc(Cl)cc1 [1% Chlorhexidine, Chlorhexidine]",Acid Production (ΔpH) Mean,"Table 2, 2 min treatment with 1:5 slurry in water",0.30 ΔpH
same,Mean Acid Inhibition (%) Mean,"Table 2, relative to negative control Crest Cavity Protection",80.77%

# — US11696881B2, “Oral care compositions comprising hops beta acids and fluoride ions” (The Procter & Gamble Company, priority 2019, dated 2023)
